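Test compounds were applied to cells in 96-well plates for 48 hours at 5 doses. GI50 = concentration required for 50% inhibition of growth. TGI is the concentration that stops growth completely.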
Tests used:
Assay in all cases: inhibition of tumour cell growth, NCI panel, 48 h
RXF 393 renal = system: RXF 393 renal
MDA-MB-435 = system: MDA-MB-435
HT29 colon = system: HT29 colon
HCC-2998 colon = system: HCC-2998 colon
TK-10 renal = system: TK-10 renal
UACC-62 melanoma = system: UACC-62 melanoma
SN12C renal = system: SN12C renal
SK-OV-3 ovarian = system: SK-OV-3 ovarian
DU-145 prostate = system: DU-145 prostate
NCI-H460 lung = system: NCI-H460 lung
NCI-H23 lung = system: NCI-H23 lung
COLO 205 colon = system: COLO 205 colon
HCT-15 colon = system: HCT-15 colon
MALME-3M melanoma = system: MALME-3M melanoma
SR leukemia = system: SR leukemia
HS 578T breast = system: HS 578T breast
PC-3 prostate = system: PC-3 prostate
K-562 leukemia = system: K-562 leukemia
UO-31 renal = system: UO-31 renal
EKVX NSCLC = system: EKVX NSCLC
MCF7 breast = system: MCF7 breast
HOP-62 NSCLC = system: HOP-62 NSCLC
NCI-H522 lung = system: NCI-H522 lung
U251 CNS = system: U251 CNS
A498 renal = system: A498 renal
HL-60(TB) leukemia = system: HL-60(TB) leukemia
A549 NSCLC = system: A549 NSCLC
OVCAR-8 ovarian = system: OVCAR-8 ovarian
SW-620 colon = system: SW-620 colon
MDA-MB-231 breast = system: MDA-MB-231 breast
RPMI-8226 leukemia = system: RPMI-8226 leukemia
SK-MEL-2 melanoma = system: SK-MEL-2 melanoma
SNB-75 CNS = system: SNB-75 CNS
ACHN renal = system: ACHN renal
UACC-257 melanoma = system: UACC-257 melanoma
SK-MEL-28 melanoma = system: SK-MEL-28 melanoma
IGROV1 ovarian = system: IGROV1 ovarian
MOLT-4 leukemia = system: MOLT-4 leukemia
OVCAR-3 ovarian = system: OVCAR-3 ovarian
786-0 renal = system: 786-0 renal
HCT-116 colon = system: HCT-116 colon
SF-295 CNS = system: SF-295 CNS
LOX IMVI melanoma = system: LOX IMVI melanoma
SF-268 CNS = system: SF-268 CNS
SK-MEL-5 melanoma = system: SK-MEL-5 melanoma
KM12 colon = system: KM12 colon
CAKI-1 renal = system: CAKI-1 renal
CCRF-CEM leukemia = system: CCRF-CEM leukemia
M14 melanoma = system: M14 melanoma
OVCAR-5 ovarian = system: OVCAR-5 ovarian
BT-549 breast = system: BT-549 breast
OVCAR-4 ovarian = system: OVCAR-4 ovarian
HOP-92 NSCLC = system: HOP-92 NSCLC
SF-539 CNS = system: SF-539 CNS
NCI-H226 lung = system: NCI-H226 lung
NCI/ADR-RES ovarian = system: NCI/ADR-RES ovarian
T-47D breast = system: T-47D breast
SNB-19 CNS = system: SNB-19 CNS

`COc1cnc2c(c1)C(=O)c1c-2n(CCCn2ccnc2)c(=O)c2cc(OC)c(OC)cc12` was tested, and the GI50 (RXF 393 renal) was 354 nM, the TGI (RXF 393 renal) was 2190 nM and the GI50 (MDA-MB-435) was 710 nM. For the same compound, the TGI (MDA-MB-435) was 4790 nM, the GI50 (HT29 colon) was 242 nM and the TGI (HT29 colon) was 1750 nM. The GI50 (HCC-2998 colon) was 899 nM, the TGI (HCC-2998 colon) was 3060 nM and the GI50 (TK-10 renal) was 2940 nM. It also gave a TGI (TK-10 renal) of 8090 nM, a GI50 (UACC-62 melanoma) of 40.1 nM and a TGI (UACC-62 melanoma) of 1470 nM. The GI50 (SN12C renal) was 56.3 nM, the TGI (SN12C renal) was 4020 nM and the GI50 (SK-OV-3 ovarian) was 119 nM. It also gave a TGI (SK-OV-3 ovarian) of 2270 nM, a GI50 (DU-145 prostate) of 60.8 nM and a TGI (DU-145 prostate) of 1900 nM. It also gave a GI50 (NCI-H460 lung) of 36.5 nM, a TGI (NCI-H460 lung) of 1320 nM and a GI50 (NCI-H23 lung) of 72.1 nM. The TGI (NCI-H23 lung) was 1620 nM, the GI50 (COLO 205 colon) was 654 nM and the TGI (COLO 205 colon) was 2380 nM. For the same compound, the GI50 (HCT-15 colon) was 1210 nM, the TGI (HCT-15 colon) was 3140 nM and the GI50 (MALME-3M melanoma) was 1390 nM. The TGI (MALME-3M melanoma) was 3040 nM, the GI50 (SR leukemia) was 20.4 nM and the TGI (SR leukemia) was 6640 nM. For the same compound, the GI50 (HS 578T breast) was 4770 nM, the TGI (HS 578T breast) was 17500 nM and the GI50 (PC-3 prostate) was 631 nM. For the same compound, the TGI (PC-3 prostate) was 8450 nM, the GI50 (K-562 leukemia) was 85.2 nM and the TGI (K-562 leukemia) was 5860 nM. It also gave a GI50 (UO-31 renal) of 65.9 nM, a TGI (UO-31 renal) of 1370 nM and a GI50 (EKVX NSCLC) of 1680 nM. It also gave a TGI (EKVX NSCLC) of 7240 nM, a GI50 (MCF7 breast) of 29.8 nM and a TGI (MCF7 breast) of 1400 nM. The GI50 (HOP-62 NSCLC) was 41.9 nM, the TGI (HOP-62 NSCLC) was 1300 nM and the GI50 (NCI-H522 lung) was 80.3 nM. The TGI (NCI-H522 lung) was 1610 nM, the GI50 (U251 CNS) was 48.1 nM and the TGI (U251 CNS) was 3280 nM. It also gave a GI50 (A498 renal) of 9440 nM, a TGI (A498 renal) of 23300 nM and a GI50 (HL-60(TB) leukemia) of 45 nM. For the same compound, the TGI (HL-60(TB) leukemia) was 3670 nM, the GI50 (A549 NSCLC) was 465 nM and the TGI (A549 NSCLC) was 11700 nM. The GI50 (OVCAR-8 ovarian) was 419 nM, the TGI (OVCAR-8 ovarian) was 2950 nM and the GI50 (SW-620 colon) was 127 nM. For the same compound, the TGI (SW-620 colon) was 2130 nM, the GI50 (MDA-MB-231 breast) was 3550 nM and the TGI (MDA-MB-231 breast) was 11900 nM. For the same compound, the GI50 (RPMI-8226 leukemia) was 167 nM, the TGI (RPMI-8226 leukemia) was 3580 nM and the GI50 (SK-MEL-2 melanoma) was 17300 nM. For the same compound, the TGI (SK-MEL-2 melanoma) was 31500 nM, the GI50 (SNB-75 CNS) was 67.3 nM and the TGI (SNB-75 CNS) was 1210 nM. For the same compound, the GI50 (ACHN renal) was 37.6 nM, the TGI (ACHN renal) was 1090 nM and the GI50 (UACC-257 melanoma) was 627 nM. For the same compound, the TGI (UACC-257 melanoma) was 2780 nM, the GI50 (SK-MEL-28 melanoma) was 1310 nM and the TGI (SK-MEL-28 melanoma) was 3610 nM. It also gave a GI50 (IGROV1 ovarian) of 1240 nM, a TGI (IGROV1 ovarian) of 6210 nM and a GI50 (MOLT-4 leukemia) of 36.7 nM. It also gave a TGI (MOLT-4 leukemia) of 2530 nM, a GI50 (OVCAR-3 ovarian) of 594 nM and a TGI (OVCAR-3 ovarian) of 2010 nM. The GI50 (786-0 renal) was 55.1 nM, the TGI (786-0 renal) was 1280 nM and the GI50 (HCT-116 colon) was 113 nM. The TGI (HCT-116 colon) was 1710 nM, the GI50 (SF-295 CNS) was 38.1 nM and the TGI (SF-295 CNS) was 1410 nM. For the same compound, the GI50 (LOX IMVI melanoma) was 42.2 nM, the TGI (LOX IMVI melanoma) was 1120 nM and the GI50 (SF-268 CNS) was 72.9 nM. It also gave a TGI (SF-268 CNS) of 14100 nM, a GI50 (SK-MEL-5 melanoma) of 258 nM and a TGI (SK-MEL-5 melanoma) of 1480 nM. The GI50 (KM12 colon) was 1670 nM, the TGI (KM12 colon) was 7690 nM and the GI50 (CAKI-1 renal) was 39.1 nM. For the same compound, the TGI (CAKI-1 renal) was 3410 nM, the GI50 (CCRF-CEM leukemia) was 35.3 nM and the TGI (CCRF-CEM leukemia) was 4470 nM. For the same compound, the GI50 (M14 melanoma) was 60 nM, the TGI (M14 melanoma) was 1410 nM and the GI50 (OVCAR-5 ovarian) was 1030 nM. The TGI (OVCAR-5 ovarian) was 3100 nM, the GI50 (BT-549 breast) was 416 nM and the TGI (BT-549 breast) was 6620 nM. For the same compound, the GI50 (OVCAR-4 ovarian) was 1540 nM, the TGI (OVCAR-4 ovarian) was 3530 nM and the GI50 (HOP-92 NSCLC) was 935 nM. The TGI (HOP-92 NSCLC) was 10800 nM, the GI50 (SF-539 CNS) was 52.7 nM and the TGI (SF-539 CNS) was 889 nM. The GI50 (NCI-H226 lung) was 190 nM, the TGI (NCI-H226 lung) was 5000 nM and the GI50 (NCI/ADR-RES ovarian) was 361 nM. It also gave a TGI (NCI/ADR-RES ovarian) of 4410 nM, a GI50 (T-47D breast) of 41.1 nM and a TGI (T-47D breast) of 1900 nM. For the same compound, the GI50 (SNB-19 CNS) was 68 nM and the TGI (SNB-19 CNS) was 13300 nM.

Reference: PubChem BioAssay (NCI)
